One series has as its target T1, PDZ1-2 of PSD-95 (Homo sapiens, UniProt P78352).
T1 construct: made in house; host or cells: E. coli BL21-DE3 pLysS
The series can be described thus: Fluorescence polarization (FP) assay, affinity for PDZ1-2 of PSD-95. The series is classed as binding. The note with it: Ki ± SEM, affinity towards PDZ1-2 of PSD-95, heterologous competition, probe AB143 0.5 nM, PDZ1-2 […], TBS pH 7.4; IC50 converted to Ki. The text has this: VI.i. Fluorescence Polarization (FP) Assay: as described below, Example 1 provides a convenient and reliable way to monitor and evaluate the inhibitor properties of a PSD-95 inhibitor of the invention. The FP assay allows a wide range of peptide analogues to be tested and compared with respect to their interaction with PDZ domains, and their specificity with respect to the tandem PDZ1-2 of PSD-95. PDZ1-2 is expressed using standard recombinant DNA technology known to those skilled in the art.
More specifically, the assay is based on a heterologous competition binding assay, where the affinity measured as IC50 of a given (non-fluorescent) peptide analogue for a PDZ domain is measured in the presence of a fixed concentration of a fluorescent labeled dimeric ligand (AB143; FIG. 4). Determined IC50 values are converted to Ki values (Nikolovska-Coleska et al, Anal. Biochem. 2004, 332, p. 261-273). The 5-FAM fluorophore may be attached to the dimeric ligand by coupling with HATU or HBTU.
The cDNA coding for PSD-95 PDZ1-2 tandem (corresponding to residues 61-249 in the human full-length PSD95α without exon 4b) were amplified by inverted PCR and cloned in a modified His-tagged pRSET vector (Invitrogen, Carlsbad, Calif., USA). The encoded PDZ1-2 peptide further comprised the sequence, […] (SEQ ID NO: 14), which was used as a tag for purification (His-tag), and the DNA coding sequences and encoded proteins are designated as follows: HIS-PDZ1-2 DNA [SEQ ID NO: 1] encoding HIS-PDZ1-2 protein [SEQ ID NO: 2]. Competent E. coli bacteria (BL21-DE3, pLysS) were transformed with PDZ1-2 expressing construct and grown overnight on agar plates containing ampicillin (100 μg/mL) and chloramphenicol (35 μg/mL) at 37° C. Colonies were picked and used to inoculate bacterial cultures (LB medium with 50 μg/mL ampicillin). These were shaken while being incubated at 37° C. until A600 of the culture reached 0.45, at which point 1 mM isopropyl β-D-1-thiogalactopyranoside was added. Induced cultures were incubated over night at 30° C. (PDZ1-2). Cells were harvested by spinning at 10,000 g for 10 min at 4° C. and re-suspended in lysis buffer (50 mM Tris/HCL pH 7.5, 1 mM PMSF, 25 μg/ml DNAse, 40 mM Mg2SO4). The cells were destroyed using a cell disruptor apparatus at 26 KPsi. The cell lysate was spun down at 35,000 g for 1 hour and the supernatant filtered with a 0.45 μm and a 0.22 μm filter. Purification of expressed PDZ1-2 peptide was performed with first a nickel (II)-charged column (HisTrap™ HP, GE Healthcare, UK) equilibrated with Tris-buffer (Tris/HCl buffer 50 mM, pH 7.5) followed by gel-filtration. For gel-filtration the PDZ1-2 sample was loaded on a Superdex™ 75 HR 10/30 column (GE Healthcare, UK) equilibrated with Tris buffer (20 mM Tris/HCL, pH 7.5) with a constant flow rate at 0.5 mL/min. The relevant fractions were analyzed on a SDS-PAGE gel stained by a standard silver staining protocol. The final purification was analyzed by electrospray ionization liquid chromatography-mass spectrometry (ESI-LC/MS) to get the exact molecular weight and thereby verify the identity of the PDZ1-2 domain. Molar extinction coefficients were found by amino acids analysis (Alphalyse, Odense, Denmark) and thereafter used for measuring protein concentrations. […]
An in vitro affinity measurement assay was developed based on the fluorescence polarization principle in order to provide affinity constants (Ki values) between synthesized ligands (e.g. dimeric inhibitors) and PDZ1-2 of PSD-95. […]
Background: Polarisation of emitted light reports the rotation of a fluorescent probe.

Series [1] can be described thus: Human blood plasma stability assay. Type of series: in vitro ADME. The note with it: human, plasma; 0.25 mM, 37° C., in vitro; read-out: half-life (T1/2) in human blood plasma. As for the experimental part:
Ligands (dimeric PSD-95 inhibitors) for the PDZ domain of PSD-95 were dissolved in human blood plasma (270 μL; 3H Biomedical, Sweden, cat no 1300-1-P50) to a concentration of 0.25 mM (30 μL, of 2.5 mM) and incubated at 37° C. Aliquots (30 μL) were removed at various time intervals (e.g. 0, 5, 10, 20, 40, 80, 160, 320, 960, 1280, 2550, 4560 and 7240 min) and quenched with 60 μL, trichloroacetic acid (aq., 5%). The aliquots were vortexed, and incubated 15 min, at 4° C. prior to centrifugation at 18,000 g for 2 min. The supernatants were analyzed by analytical RP-HPLC (UV218) to quantify compound relative to time zero, and also evaluated qualitatively by ESI-LC/MS in order to identify the compound (m/z) in the sample. Procaine (positive control) and procainamide (negative control) were investigated at 50 μM to validate the procedure. Ligand recoveries following the precipitation procedure were between 85-95%.

The nature of series [2]: Physiological status of pMCAO mice (blood values, body weight, temperature, survival). The series is classed as in vivo. The note with it: mouse, in vivo. As for the experimental part: The physiological status of the mice was carefully monitored prior to and during pMCAO surgery in order to exclude the observed effects of treatment with dimeric PSD-95 inhibitors being due to secondary conditions (e.g. disease-related) resulting from the experimental procedure.
9.10 Body weight monitoring: The body weight of each mouse was registered during pre-training, before surgery, and at 24 and 48 hours after surgery and no differences were seen between the treatment groups (FIG. 13).
9.11 Temperature monitoring: The rectal temperature of the mouse was continuously measured using a thermocoupled probe connected to a Model Bat 12 unit (Physitemp). The temperature was measured prior to and 30 min after pMCAO in addition to 30 min and 2.5 hours after i.v. injection, i.e. 1 and 3 hours after pMCAO.
9.12 Blood gas analysis: One samples of venous blood was taken for blood gas analysis of PO2/PCO2 electrolytes, glucose, lactate, and hematocrit, 30 min after compound administration (1 hour after pMCAO). A capillary heparin coated tube was inserted along the inner corner of eye and turned until it penetrated the conjunctiva. A sample of blood (150 μl) was collected and stored on ice until gas analysis using the GEM Premier 300 blood gas instrument (Instrumentation Laboratory) Quality controls (QC ContrlIL9) were purchased from IL Sensor Systems. Also, no differences were detected in blood gas parameters (PO2/PCO2, pH, electrolytes, glu/lac), which were similar between the groups and within normal range, when compared to unmanipulated control mice (Table 4).

Experimental findings from patent US9139615B2, “High-affinity, dimeric inhibitors of PSD-95 as efficient neuroprotectants against ischemic brain damage and for treatment of pain” (University of Copenhagen, priority 2011, dated 2015) are described below.

Where no end group is shown, it is not given here.

T1 sequence (P78352 with tags, fused parts or gaps): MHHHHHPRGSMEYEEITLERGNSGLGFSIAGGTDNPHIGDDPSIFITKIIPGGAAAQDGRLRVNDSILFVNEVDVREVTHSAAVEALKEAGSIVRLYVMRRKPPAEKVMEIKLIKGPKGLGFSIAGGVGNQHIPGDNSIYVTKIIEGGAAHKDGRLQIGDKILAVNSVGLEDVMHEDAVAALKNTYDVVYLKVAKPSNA

Turning to “YGRKKRRQRRRKLSSIESDV [Tat-NR2B9c, reference compound]”, on PDZ1-2 of PSD-95, the Ki worked out at 4.6 ± 0.3 µM. The half-life at 0.25 mM in series [1] is 18.3 ± 5 h. Further, in series [2], the Hct is 40.8 ± 0.6%, the “[Ca2+]” value was 1.32 ± 0.01 mmol/L, the “[K+]” value is 5.1 ± 0.13 mmol/L and the “[Lactate]” value was 0.87 ± 0.07 mmol/L. For the same sequence, in series [2], the “[Na+]” value worked out at 147 ± 0.3 mmol/L, the pCO2 was 106 ± 2.4 mmHg and the pO2 is 55.2 ± 2.6 mmHg.

What is called Ki is a dissociation constant, usually derived from enzyme kinetics or from competition with a known ligand.
